Among the test systems are RPMI-8226; SNB-75; OVCAR-8; OVCAR-5; MDA-MB-231; UACC-62; U-251; SK-MEL-28; NCI-H226; IGROV-1; PC-3; Hs-578T; NCI-H23; HL-60; OVCAR-3; K562; SK-MEL-5; HT-29; HCT-116.
Experiment in all cases: NCI tumour cell line growth inhibition, 48 h

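Cells were grown in 96-well plates and exposed to each compound for 48 hours at five concentrations; endpoints were interpolated linearly between bracketing concentrations, or set to the highest concentration if not reached. GI50: concentration for 50% inhibition of growth.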 Activity calls are given as the source filed them. Rule as the data show it: active = GI50 up to about 1.1 µM and inactive = higher.

As for `O=C(O)c1ccc(Nc2nc3cc(C(F)(F)F)ccc3nc2-c2ccccc2)cc1`, the GI50 is 16.4 µM (inactive) with RPMI-8226; 18.3 µM (inactive) in the experiment with SNB-75; 27.9 µM (inactive) in the experiment with OVCAR-8; 45.6 µM (inactive) with OVCAR-5; 32.1 µM (inactive) with MDA-MB-231; 10.4 µM (inactive) in the experiment on UACC-62. In addition, the GI50 with U-251 is 14.9 µM (inactive); with SK-MEL-28 it was 28.6 µM (inactive); in the experiment on NCI-H226 it was 25 µM (inactive); in the experiment with IGROV-1, 13.4 µM (inactive); with PC-3, 18.5 µM (inactive); in the experiment with Hs-578T it was 17.6 µM (inactive). Also, the GI50 in the experiment on NCI-H23 was 19 µM (inactive); in the experiment with HL-60 it was 27.7 µM (inactive); in the experiment on OVCAR-3 it was 15.2 µM (inactive); in the experiment with K562, 16.8 µM (inactive); with SK-MEL-5, 21 µM (inactive); in the experiment with HT-29, 14.1 µM (inactive). In addition, the GI50 in the experiment with HCT-116 was 22.8 µM (inactive).
As to `COc1ccc2c(c1)c(=O)c1c(NCCNCCO)ccc3c(=O)n(CCN(C)C)c(=O)n2c31`, the GI50 is 0.0912 µM (active) in the experiment on RPMI-8226; 0.0933 µM (active) with SNB-75; 0.0604 µM (active) in the experiment with OVCAR-8; 0.227 µM (active) in the experiment on OVCAR-5; 0.132 µM (active) with MDA-MB-231; 0.0662 µM (active) in the experiment with UACC-62. Also, the GI50 was < 0.0374 µM (active) in the experiment on U-251; 0.475 µM (active) in the experiment on SK-MEL-28; 0.148 µM (active) with NCI-H226; 0.0279 µM (active) with IGROV-1; 0.0836 µM (active) with PC-3; 0.132 µM (active) in the experiment with Hs-578T. The GI50 was 0.0637 µM (active) in the experiment with NCI-H23; > 100 µM (inactive) in the experiment on HL-60; 0.331 µM (active) in the experiment on OVCAR-3; 0.0333 µM (active) in the experiment with K562; 0.0562 µM (active) in the experiment with SK-MEL-5; 0.0352 µM (active) in the experiment with HT-29. Besides, the GI50 in the experiment on HCT-116 was < 0.0186 µM (active).
In the case of `CCOC(=O)C1(Cc2ccccc2)CCN(C(=O)c2ccccc2)C2C1C2(Cl)Cl` (stereo not given), the GI50 is 13.2 µM (inactive) with RPMI-8226; 23.1 µM (inactive) in the experiment with SNB-75; 28.3 µM (inactive) with OVCAR-8; 29.9 µM (inactive) in the experiment with OVCAR-5; 17.1 µM (inactive) with MDA-MB-231; 12 µM (inactive) in the experiment with UACC-62. Besides, the GI50 is 15.9 µM (inactive) with U-251; 21.1 µM (inactive) in the experiment with SK-MEL-28; 23.6 µM (inactive) in the experiment on NCI-H226; 31.2 µM (inactive) with IGROV-1; 16.7 µM (inactive) with PC-3; 26.7 µM (inactive) in the experiment with Hs-578T. For the same compound, the GI50 is 23.5 µM (inactive) in the experiment on NCI-H23; 12.2 µM (inactive) with HL-60; 18.3 µM (inactive) in the experiment on OVCAR-3; 27 µM (inactive) in the experiment on K562; 15.9 µM (inactive) in the experiment with SK-MEL-5; 16.6 µM (inactive) in the experiment on HT-29. In the experiment on HCT-116, the GI50 is 15 µM (inactive).
With `Oc1cccc2cc(Br)cnc12`, the GI50 with RPMI-8226 was 3.49 µM (inactive); in the experiment with SNB-75, 18 µM (inactive); in the experiment on OVCAR-8, 3.45 µM (inactive); in the experiment on OVCAR-5, 17.7 µM (inactive); with MDA-MB-231, 4.35 µM (inactive); in the experiment with UACC-62 it was 5.96 µM (inactive). For the same compound, the GI50 was 8.32 µM (inactive) in the experiment on U-251; 49.2 µM (inactive) in the experiment with SK-MEL-28; 27.5 µM (inactive) with NCI-H226; 5.09 µM (inactive) in the experiment on IGROV-1; 6.68 µM (inactive) in the experiment with PC-3; 27.9 µM (inactive) in the experiment on Hs-578T. The GI50 in the experiment with NCI-H23 is 5.92 µM (inactive); in the experiment with HL-60 it was 1.05 µM (active); in the experiment with OVCAR-3, 2.67 µM (inactive); with K562, 3.21 µM (inactive); in the experiment on SK-MEL-5, 6.5 µM (inactive); in the experiment with HT-29, 23.1 µM (inactive). Besides, the GI50 with HCT-116 was 4.97 µM (inactive).
In the case of `CC(C)(C)C1=CC(O)(c2c3ccccc3c(C3(O)C=C(C(C)(C)C)C(=O)C(C(C)(C)C)=C3)c3ccccc23)C=C(C(C)(C)C)C1=O`, the GI50 was 58.3 µM (inactive) with RPMI-8226; 35.2 µM (inactive) in the experiment with SNB-75; > 100 µM (inactive) with OVCAR-8; > 100 µM (inactive) in the experiment with OVCAR-5; 27 µM (inactive) with MDA-MB-231; > 100 µM (inactive) with UACC-62. For the same compound, the GI50 in the experiment with U-251, with SK-MEL-28, with NCI-H226, in the experiment on IGROV-1, with PC-3 and in the experiment on Hs-578T was > 100 µM (inactive) in each case. Further, the GI50 in the experiment on NCI-H23 is > 100 µM (inactive); with HL-60, > 10 µM (inactive); in the experiment on OVCAR-3, > 100 µM (inactive); with K562, 81.8 µM (inactive); with SK-MEL-5, > 100 µM (inactive); with HT-29, > 100 µM (inactive). Also, the GI50 with HCT-116 is > 100 µM (inactive).
As for `COC(=O)C(Cc1nc2ccccc2nc1O)C(=O)C(=O)Nc1cc(C(F)(F)F)ccc1Cl` (stereo not given), the GI50 in the experiment on RPMI-8226 is 7.01 µM (inactive); with SNB-75, 18.6 µM (inactive); with OVCAR-8 it was 12.1 µM (inactive); in the experiment on OVCAR-5, 19.4 µM (inactive); in the experiment on MDA-MB-231, 22.2 µM (inactive); in the experiment with UACC-62, 18.2 µM (inactive). Besides, the GI50 is 9.91 µM (inactive) in the experiment with U-251; 25.4 µM (inactive) in the experiment on SK-MEL-28; 18 µM (inactive) in the experiment on NCI-H226; 12.2 µM (inactive) in the experiment with IGROV-1; 17 µM (inactive) with PC-3; 12.7 µM (inactive) in the experiment with Hs-578T. The GI50 in the experiment with NCI-H23 was 14.2 µM (inactive); in the experiment with HL-60, 10.3 µM (inactive); in the experiment with OVCAR-3 it was 12.8 µM (inactive); in the experiment on K562, 12 µM (inactive); in the experiment with SK-MEL-5, 20.4 µM (inactive); with HT-29 it was 15.3 µM (inactive). In addition, the GI50 in the experiment with HCT-116 was 18.2 µM (inactive).
Take `OC1CCC(C2C3CCCCC3C3CCCCC3C2C2CCC(O)CC2)CC1` (stereo not given): the GI50 is 5.53 µM (inactive) in the experiment with RPMI-8226; 5.38 µM (inactive) in the experiment on SNB-75; 3.72 µM (inactive) with OVCAR-8; 7.59 µM (inactive) with OVCAR-5; 3.27 µM (inactive) with MDA-MB-231; 7.16 µM (inactive) in the experiment with UACC-62. Besides, the GI50 is 3.6 µM (inactive) with U-251; 3.83 µM (inactive) in the experiment with SK-MEL-28; 6 µM (inactive) in the experiment with NCI-H226; 3.7 µM (inactive) in the experiment on IGROV-1; 5.31 µM (inactive) in the experiment on PC-3; 7.28 µM (inactive) in the experiment on Hs-578T. Further, the GI50 with NCI-H23 was 3.08 µM (inactive); in the experiment on HL-60 it was 4.13 µM (inactive); in the experiment on OVCAR-3, 4.67 µM (inactive); with K562, 4.69 µM (inactive); with SK-MEL-5, 10.4 µM (inactive); in the experiment with HT-29, 2.05 µM (inactive). Moreover, the GI50 in the experiment on HCT-116 was 4.52 µM (inactive).
As for `O=C(NC(Cc1c[nH]cn1)C(=O)N1CCCC1)C1CCCC1` (stereo not given), the GI50 with RPMI-8226, in the experiment on SNB-75, in the experiment with OVCAR-8, with OVCAR-5, with MDA-MB-231 and with UACC-62 was > 100 µM (inactive) throughout. Moreover, the GI50 in the experiment on U-251 was > 100 µM (inactive); with SK-MEL-28, > 100 µM (inactive); in the experiment with NCI-H226, > 100 µM (inactive); in the experiment on IGROV-1 it was > 100 µM (inactive); in the experiment on PC-3, > 100 µM (inactive); in the experiment on Hs-578T it was 83.8 µM (inactive). Further, the GI50 in the experiment with NCI-H23, in the experiment on HL-60, in the experiment with OVCAR-3, in the experiment on K562, with SK-MEL-5 and in the experiment on HT-29 was > 100 µM (inactive) each time. Further, the GI50 in the experiment with HCT-116 is > 100 µM (inactive).
With `C[C@@H](CC(=O)OCc1ccccc1)OC1OC(COC(=O)C(C)(C)C)C(OC(=O)C(C)(C)C)C(OC(=O)C(C)(C)C)C1OC(=O)C(C)(C)C` (stereo not given in full), the GI50 with RPMI-8226, in the experiment with SNB-75, with OVCAR-8, with OVCAR-5, with MDA-MB-231 and with UACC-62 was > 100 µM (inactive) each time. Moreover, the GI50 in the experiment with U-251, with SK-MEL-28, in the experiment with NCI-H226, in the experiment with IGROV-1, in the experiment on PC-3 and with Hs-578T was > 100 µM (inactive) each time. Besides, the GI50 with NCI-H23 is > 100 µM (inactive); with HL-60, > 100 µM (inactive); in the experiment with OVCAR-3, > 100 µM (inactive); with K562, > 100 µM (inactive); with SK-MEL-5, 5.28 µM (inactive); with HT-29, > 100 µM (inactive). Moreover, the GI50 in the experiment with HCT-116 is > 100 µM (inactive).
`Nc1n[n+]([O-])c2cc([N+](=O)[O-])ccc2[n+]1[O-]`: the GI50 in the experiment with RPMI-8226 was 2.11 µM (inactive); in the experiment with SNB-75 it was 26.7 µM (inactive); in the experiment with OVCAR-8, 3.44 µM (inactive); in the experiment on OVCAR-5, 21.2 µM (inactive); with MDA-MB-231 it was 4.99 µM (inactive); with UACC-62, 2.49 µM (inactive). In addition, the GI50 in the experiment on U-251 was 4.61 µM (inactive); in the experiment with SK-MEL-28, 29 µM (inactive); in the experiment with NCI-H226, 15.5 µM (inactive); in the experiment with IGROV-1, 2.87 µM (inactive); in the experiment on PC-3, 2.19 µM (inactive); with Hs-578T, 11 µM (inactive). The GI50 with NCI-H23 is 13.8 µM (inactive); in the experiment on HL-60, 2.2 µM (inactive); with OVCAR-3 it was 1.93 µM (inactive); in the experiment with K562, 2.14 µM (inactive); in the experiment on SK-MEL-5, 7.71 µM (inactive); in the experiment on HT-29, 2.53 µM (inactive). In addition, in the experiment with HCT-116, the GI50 is 2.9 µM (inactive).

The values above are taken from ChEMBL document CHEMBL1201862, “PubChem BioAssay data set” (2004).
